Results from publication PMC8000760, “Potential Effect of Pseudevernia furfuracea (L.) Zopf Extract and Metabolite Physodic Acid on Tumour Microenvironment Modulation in MCF-10A Cells” (Biomolecules, 2021).

Columns and labels:
[1] = system: BJ-5ta; assay: MTS cell viability assay; format: cell-based; conditions: 72 h
Experimental: (§1) Briefly, MCF-10A and BJ-5ta were seeded in 96-well culture plates, and after 24 h incubation, treated with various ranges of concentrations of tested compounds (10–100 μg/mL) for 72 h. At the same time, HUVECs were seeded in a gelatine-coated 96-well plate and treated with the same aliquots of indicated compounds in the presence or absence of VEGF (Vascular endothelial growth factor) (25 ng/mL) for 48 h. Cell viability was evaluated by measuring the absorbance at 490 nm using the automated CytationTM 3 Cell Imaging Multi-Mode Reader (Biotek, Winooski, VT, USA). Three independent experiments were performed at different intervals.

[2] = system: HUVECs; assay: MTS cell viability assay; format: cell-based, human; conditions: 48 h
Experimental: as §1

[3] = system: MCF-10A; assay: MTS cell viability assay; format: cell-based, human; conditions: 72 h
Experimental: as §1

[4] = system: HUVECs; assay: BrdU cell proliferation assay; format: cell-based, human; conditions: 48 h
Experimental: (§2) The MCF-10A (5 × 10^3/well), BJ-5ta (5 × 10^3/well) and HUVEC cells (4 × 10^3/well) were plated in a 96-well plate in 80 μL suitable medium. HUVECs were seeded onto a gelatine-coated plate. After 24 h, cells were treated with the range of concentration 10–100 μg/mL for 72 h (MCF-10A, BJ-5ta), or in the presence or absence of 25 ng/mL of VEGF for 48 h (HUVECs). After 48 h (MCF-10A, BJ-5ta) or 24 h (HUVECs), BrdU labelling solution was added into cells and incubated for another 24 h at 37 °C, followed by fixation and incubation with anti-BrdU peroxidase conjugate solution for an additional 1.5 h at room temperature (RT). Then, cells were washed with washing buffer PBS and incubated with substrate solution TMB for 5 to 30 min according to colour intensity. Finally, we added stop solution (1 M H2SO4) and incorporated BrdU was detected with an automated CytationTM 3 Cell Imaging Multi-Mode Reader at 450 nm (reference wavelength: 690 nm). Three independent experiments were performed at different intervals.

[5] = system: MCF-10A; assay: BrdU cell proliferation assay; format: cell-based, human; conditions: 72 h
Experimental: as §2

[6] = system: MCF-10A, BJ-5ta and HUVEC cells; assay: MTS cell viability assay, range over the three cell lines; format: cell-based; conditions: cell viability and cell proliferation tests
Experimental: as §1

[7] = system: N-cadherin in TGF-β-stimulated MCF-10A cells; assay: N-cadherin expression, flow cytometry; format: cell-based, human; conditions: IC10, 24, 48, 72 h, compared to TGF-β alone
Experimental: (§3) The MCF-10A and BJ-5ta cells were seeded and cultivated for 24 h in a complete medium. One day after seeding, 30 ng/mL of TGF-β was added and cultivated for 7 days (d). TGF-β was added to induce epithelial–mesenchymal transition in tested cell lines. Lichen extract P. furfuracea (L.) Zopf and its metabolite physodic acid were added at time 0 h and then incubated for 24, 48 and 72 h for various analyses, as described in Figure 1.
The MCF-10A cells (1 × 10^4/well) were seeded in Petri dishes and stimulated with […] TGF-β for 7 days. […] After detaching, using Trypsin/EDTA, cells were harvested and pelleted by centrifugation at 1200 rpm for 5 min. Pellet was re-suspended in PBS and divided for a particular analysis. Cells were stained prior to analyses with E-Cadherin Mouse mAb (Alexa Fluor 488 conjugate) or N-cadherin Rabbit mAb (Alexa Fluor 647 conjugate) (Cell Signalling) for 15 min at RT in the dark. For the cell cycle analyses, cells were re-suspended in staining solution (final concentration 0.1% Triton X-100, 0.5 mg/mL ribonuclease A and 0.025 mg/mL propidium iodide (PI)), and incubated in the dark at RT for 30 min. All samples were analysed using a FACS Calibur flow cytometer (Becton Dickinson, San Jose, CA, USA). The IgG isotype control checking was performed for every used antibody.

[8] = system: N-cadherin in TGF-β-stimulated MCF-10A cells; assay: N-cadherin expression, immunofluorescence staining; format: cell-based, human; conditions: IC10, 72 h, compared to TGF-β alone
Experimental: as §3
The MCF-10A cells at a density of 2 × 10^3/cm^2, plated on 22 mm^2 glass coverslips, were stimulated for 7 days with 30 ng/mL of TGF-β. […] After treatment, cells were washed with PBS, fixed with 4% paraformaldehyde (pH 7.2) for 10 min, permeabilised by 0.1% Triton X-100 (Sigma-Aldrich) for 10 min at RT and then washed three) times with PBS for 5 min. Glass coverslips were then incubated with Swine serum (1:30) for 30 min for blocking non-specific binding. Primary antibodies were diluted according to the manufacturer’s instructions (Table 2) and transferred to coverslips for 90 min. […] All coverslips were mounted in Vectashield (Cole-Parmer, Illinois, USA) and immunofluorescence pictures were taken with the same exposition settings by the Nikon Eclipse 90i fluorescence microscope (Nikon, Tokyo, Japan) equipped with filter cubes for FITC and DAPI. Images were then analysed using ImageJ (NIH) software.

[9] = system: Smad2/3 in BJ-5ta; assay: Western blot of total Smad2/3 in TGF-β-stimulated fibroblasts; format: cell-based; conditions: TGF-β-stimulated BJ-5ta
Experimental: as §3
Proteins isolated from MCF-10A and BJ-5ta cell lysates were determined by the Pierce® BCA Protein Assay Kit (Thermo Scientific, Rockford, IL, United States), using bovine serum albumin (BSA) as the standard, and measured by an automated Cytation™ 3 Cell Imaging Multi-Mode Reader (Biotek) at a wavelength of 570 nm. Proteins were separated on SDS-PAA gel (12%) at 100 V for 2 h and then transferred to a polyvinylidene difluoride (PVDF) membrane using the iBlot dry blotting system (Thermo Scientific, Rockford, IL, United States). […] After incubation, the membrane was again washed in TBS-Tween (3 × 5 min), and the expression of the protein was detected using a chemiluminescent ECL substrate (Thermo Fisher Scientific) and MF-ChemiBIS 2.0 Imaging System (DNR BIO-Imaging Systems, Jerusalem, Israel). The detected band was then analysed densitometrically using the Image Studio Lite software (LI-COR Biosciences, Lincoln, NE, USA). […]

CCCCCC(=O)Cc1cc(O)cc2c1C(=O)Oc1cc(O)c(C(=O)O)c(CCCCC)c1O2 [Phy, physodic acid]
IC10 [1]: 46.35 ± 0.39 µM
IC50 [1]: 83.2 ± 1.02 µM
VEGF-induced cell growth ([2]; HUVECs with VEGF 25 ng/mL): significantly inhibited
cell growth of non-stimulated HUVECs ([2]; HUVECs without VEGF): no significant differences
IC10 ([2]; HUVECs): 60.62 ± 3.30 µM
IC50 ([2]; Homo sapiens, HUVEC, HUVECs): 92.8 ± 3.62 µM
IC10 [3]: 59.25 ± 1.36 µM
IC50 ([3]; Homo sapiens): 79.9 ± 0.93 µM
IC10 [4]: 89.53 ± 3.21 µM
IC50 ([4]; Homo sapiens, HUVEC): 124 ± 5.33 µM
IC10 [5]: 63.63 ± 3.40 µM
IC50 ([5]; Homo sapiens): 155 ± 7.4 µM
degree of cytotoxicity on all tested cells [6]: did not show a high degree of cytotoxicity
N-cadherin expression, flow cytometry [7]: significantly reduced
N-cadherin expression, immunofluorescence [8]: significant decrease
total Smad2/3 levels [9]: altered minimally
